According to US20220119511A1, “COMPOSITIONS AND METHODS FOR TREATMENT OF DIABETES, OBESITY, HYPER-CHOLESTEROLEMIA, AND ATHEROSCLEROSIS BY INHIBITION OF SAM68” (The UAB Research Foundation, priority 2020, published 2022):
Residues, ends and D or L forms follow the SMILES beside them. *: point of attachment. Cbz = O=C(OCc1ccccc1)*

T1: CRTC2 (CREB-regulated transcriptional coactivator 2), endogenous, in WT mouse primary hepatocytes (mouse, UniProt Q3U182 2-692)
T1 construct: Endogenous protein immunoprecipitated with the CRTC2 antibody (sc-271912); also called endogenous CRTC2
T1 sequence (looked up): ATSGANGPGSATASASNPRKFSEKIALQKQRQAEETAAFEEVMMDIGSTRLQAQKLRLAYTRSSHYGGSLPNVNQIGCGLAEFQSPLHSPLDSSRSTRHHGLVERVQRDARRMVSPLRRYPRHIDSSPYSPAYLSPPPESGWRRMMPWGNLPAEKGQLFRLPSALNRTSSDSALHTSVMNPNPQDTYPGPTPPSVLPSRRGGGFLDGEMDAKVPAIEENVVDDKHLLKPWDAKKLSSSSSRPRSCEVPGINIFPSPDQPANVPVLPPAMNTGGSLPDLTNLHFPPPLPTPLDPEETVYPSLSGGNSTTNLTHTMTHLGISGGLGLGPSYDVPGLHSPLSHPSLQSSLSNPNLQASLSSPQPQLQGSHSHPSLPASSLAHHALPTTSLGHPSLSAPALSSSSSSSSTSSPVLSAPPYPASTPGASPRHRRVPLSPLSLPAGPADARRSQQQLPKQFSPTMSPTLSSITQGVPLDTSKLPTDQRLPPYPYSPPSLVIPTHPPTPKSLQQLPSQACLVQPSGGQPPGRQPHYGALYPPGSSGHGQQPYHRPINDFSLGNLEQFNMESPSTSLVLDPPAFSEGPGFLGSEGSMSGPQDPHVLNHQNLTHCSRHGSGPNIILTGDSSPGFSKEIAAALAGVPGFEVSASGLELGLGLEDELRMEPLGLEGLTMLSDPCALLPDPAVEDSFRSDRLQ

B1: Sam68 (Src-associated-in-mitosis-of-68kDa), endogenous, in WT mouse primary hepatocytes (other, UniProt Q60749 1-443, looked up)
chain: MQRRDDPASRLTRSSGRSCSKDPSGAHPSVRLTPSRPSPLPHRPRGGGGGPRGGARASPATQPPPLLPPSTPGPDATVVGSAPTPLLPPSATAAVKMEPENKYLPELMAEKDSLDPSFTHAMQLLSVEIEKIQKGESKKDDEENYLDLFSHKNMKLKERVLIPVKQYPKFNFVGKILGPQGNTIKRLQEETGAKISVLGKGSMRDKAKEEELRKGGDPKYAHLNMDLHVFIEVFGPPCEAYALMAHAMEEVKKFLVPDMMDDICQEQFLELSYLNGVPEPSRGRGVSVRGRGAAPPPPPVPRGRGVGPPRGALVRGTPVRGSITRGATVTRGVPPPPTVRGAPTPRARTAGIQRIPLPPTPAPETYEDYGYDDTYAEQSYEGYEGYYSQSQGESEYYDYGHGELQDSYEAYGQDDWNGTRPSLKAPPARPVKGAYREHPYGRY
notes: Endogenous protein co-immunoprecipitated from mouse primary hepatocytes; also called KHDRBS1

What was measured:
[1] = system: CRTC2; test: CRTC2 protein levels in primary hepatocytes treated with proteasome or autophagy inhibitors (Western blot); type: cell-based, mouse; settings: up to 16 h (MG132 20 μM, BZM 100 nM) or up to 8 h (bafilomycin 100 nM)
Description: FIGS. 7A-7J show Sam68 binds CRTC2 and inhibits CRTC2 ubiquitination and proteosomal degradation. In FIG. 7A, WT and Sam68^−/− mice were treated with glucagon (30 μg/kg) or PBS for 10 min; then, nuclear and cytoplasmic proteins were isolated from the liver tissue, and Sam68 protein expression was evaluated via Western blot. In FIG. 7B, CRTC2 was immunoprecipitated from WT and Sam68^−/− primary hepatocytes, and then CRTC2, Sam68, and CREB protein was detected in the precipitates via immunoblot. In FIG. 7C, 293T cells were co-transfected with plasmids coding for HA-tagged Sam68 and Flag-tagged CRTC2; 48 h later, CRTC2 was immunoprecipitated from the cells with anti-Flag, and Sam68 was detected in the precipitates by immunoblotting with anti-HA. In FIG. 7D, 293T cells were co-transfected with plasmids coding for Flag-tagged CRTC2 and HA-tagged WT Sam68 or HA-tagged mutations of Sam68 lacking the N-terminal domain (ΔN), the CK domain (ΔCK), proline motifs 3 and 4 (ΔP3-P4), or the C-terminal domain (ΔC); 48 h later, Sam68 and the Sam68 mutants were immunoprecipitated with anti-HA, and CRTC2 was detected in the precipitates by immunoblotting with anti-Flag. […] P62/SQSTM1 and LC3BI/II protein levels were also evaluated to indicate autophagic activity. […]

[2] = target: T1, CRTC2 (CREB-regulated transcriptional …); test: co-IP from mouse primary hepatocytes (FIG. 7B)
Description: In FIG. 7A, WT and Sam68^{-/-} mice were treated with glucagon (30 μg/kg) or PBS for 10 min; then, nuclear and cytoplasmic proteins were isolated from the liver tissue, and Sam68 protein expression was evaluated via Western blot. In FIG. 7B, CRTC2 was immunoprecipitated from WT and Sam68^{-/-} primary hepatocytes, and then CRTC2, Sam68, and CREB protein was detected in the precipitates via immunoblot. […] In FIG. 7E, WT and Sam68^{-/-} primary hepatocytes were treated with cycloheximide (100 μM) for 0-8 h to block new protein synthesis; then, CRTC2 protein levels were evaluated by Western blot, quantified via Image J software, normalized to β-actin levels, and reported as the proportion of the amount present at 0 h. WT and Sam68^{-/-} primary hepatocytes were treated with cycloheximide and (FIG. 7E) MG132 (20 μM), (FIG. 7F) BZM (100 nM), or (FIG. 7G) bafilomycin (100 nM) for 0-16 (MG132, BZM) or 0-8 (bafilomycin) and CRTC2 protein levels were evaluated by Western blot, quantified via Image J software, normalized to β-actin levels, and reported as the proportion of the amount present in WT cells at 0 h. P62/SQSTM1 and LC3BI/II protein levels were also evaluated to indicate autophagic activity. […]

Molecule	CRTC2 protein levels in Sam68−/− hepatocytes during treatment [1]	binding result [2]
CC(C)C[C@@H](C=O)NC(=O)[C@H](CC(C)C)NC(=O)[C@H](CC(C)C)NC(=O)OCc1ccccc1 [MG132] (Cbz-Leu-Leu-Leu-aldehyde)	approximately doubled	–
bafilomycin	unchanged	–
B1	–	binds
